# Test results from patent publication US10160719B2, “Pharmaceutical salts” (GRUNENTHAL GMBH, priority 2001, dated 2018).
# Where a name gives a salt, the structure may show the parent alone.
# Assay: water solubility determination at 20° C. in ion-free water
# Conditions: for solubility at 10 min: water
# Description: In a clear colorless vessel made of transparent material, such as, for example, glass or plastic, 1 ml of ion-free water or a fraction (amount A in ml) thereof is introduced at a temperature of 20° C.
# If the amount of salt B added (in mg) completely dissolved, further amounts of the respective salt were slowly added. Each further addition was recorded and the solution behavior observed. As soon as the first turbidity due to undissolved salt was found by observation against a suitable background, stirring was continued for a further 10 minutes. If undissolved constituents subsequently remained, the sum C (in mg) of the amount of substance employed was determined. If a clear solution resulted again on stirring, further small amounts of the respective salt were added and the mixture was in each case stirred again for 10 minutes until a first turbidity remained on account of undissolved salts. The excess amount of undissolved substance was then brought into solution with stirring by addition of small amounts of water. After a clear solution had been obtained, the sum D (in ml) of the amount of water employed was determined. The solubility of the respective salt per 1 ml of water was then calculated according to the following formula: […]
# If undissolved salt still remained then, the undissolved portion was brought into solution by addition of small amounts of water with stirring. After obtainment of a clear solution, the sum E (in ml) of the amounts of water employed was determined. The solubility of the respective salt per 1 ml of water was then calculated according to the following formula: […]
# [1] = Solubility of the active compound salt in mg/ml of water, conventional salt of the active compound (salt indicated in brackets), ion-free water, 20° C.
# [2] = Solubility of the active compound saccharinate in mg/ml of water, saccharinate salt, ion-free water, 20° C.
# [3] = saccharinate salt, ion-free water, 20° C.
Molecule,solubility at 10 min [1] [mg/mL],solubility at 10 min [2] [mg/mL],also measured
"CNC[C@H](O)c1cccc(O)c1 [Phenylephrine hydrochloride, Phenylephrine]",≥ 1250,–,–
"COc1ccc2c3c1O[C@H]1[C@@H](O)C=C[C@H]4[C@@H](C2)N(C)CC[C@@]341 [Codeine phosphate hemihydrate, Codeine]",≥ 250,–,–
"COc1ccc2c3c1O[C@H]1[C@@H](O)C=C[C@H]4[C@@H](C2)N(C)CC[C@@]341 [Codeine saccharinate, Codeine]",–,≥ 200,–
"COc1cc(N)cn[n+]1-c1ccccc1 [Amezinium saccharinate, Amezinium]",–,–,solubility at 10 min (Solubility of the active compound saccharinate in mg/ml of water): ≥ 8 mg/mL
"CC[C@H](c1cccc(O)c1)[C@H](C)CN(C)C.O=C1NS(=O)(=O)c2ccccc21 [(+)-(1S,2S)-3-(3-dimethylamino-1-ethyl-2-methylpropyl)phenol saccharinate]",–,–,Solubility of the active compound saccharinate in mg/ml of water [3]: ≥ 55 mg/ml of water
"CC[C@H](c1cccc(O)c1)[C@H](C)CN(C)C.Cl [(+)-(1S,2S)-3-(3-dimethylamino-1-ethyl-2-methylpropyl)phenol hydrochloride]",≥ 650,–,–
Benzalkonium [Benzalkonium hydrochloride],–,–,"Solubility of the active compound salt in mg/ml of water (conventional salt of the active compound (salt indicated in brackets), ion-free water, 20° C.): ≥ 500 mg/ml of water"
"COc1cccc([C@@]2(O)C[C@H](O)CC[C@@H]2CN(C)C)c1 (racemic) [(1RS,3RS,6RS)-6-dimethylaminomethyl-1-(3-methoxy-phenyl)cyclohexane-1,3-diol]",≥ 500,≥ 71,–
"CC[C@@H](c1cccc(O)c1)[C@@H](C)CN(C)C [(−)-(1R,2R)-3-(3-dimethylamino-1-ethyl-2-methylpropyl)phenol]",≥ 261,≥ 31,–
Benzalkonium [Benzalkonium saccharinate],–,–,Solubility of the active compound saccharinate in mg/ml of water [3]: <2 mg/ml of water
"COc1cccc([C@@]2(O)CC[C@H](OCc3ccc(F)cc3)C[C@@H]2CN(C)C)c1 [(+)-(1R,2R,4S)-2-dimethylaminomethyl-4-(4-fluorobenzyl-oxy)-1-(3-methoxy-phenyl)cyclohexanol]",–,–,"solubility at 10 min (ion-free water, Solubility of the active compound saccharinate in mg/ml of water, saccharinate salt, 20° C.): ≥ 10 mg/mL; solubility at 10 min (ion-free water, Solubility of the active compound salt in mg/ml of water, conventional salt of the active compound (salt indicated in brackets), 20° C.): ≥ 33 mg/mL"
"CC[C@@](F)(c1cccc(O)c1)[C@@H](C)CN(C)C [(−)-(1S,2S)-3-(3-dimethylamino-1-ethyl-1-fluoro-2-methyl-propyl)phenol]",≥ 568,≥ 130,–
"CC[C@@](O)(c1cccc(OC)c1)[C@@H](C)CN(C)C [(−)-(2S,3S)-1-dimethylamino-3-(3-methoxyphenyl)-2-methylpentan-3-ol]",≥ 2000,≥ 90,–
"CNC[C@H](O)c1cccc(O)c1 [Phenylephrine saccharinate, Phenylephrine]",–,≥ 380,–
"COc1cc(N)cn[n+]1-c1ccccc1 [Amezinium metilsulfate, Amezinium]",–,–,solubility at 10 min (Solubility of the active compound salt in mg/ml of water): ≥ 25 mg/mL
